From patent US8772237B2, “Compositions and methods for counteracting effects of reactive oxygen species and free radicals” (Ischemix, Inc., priority 1999, dated 2014)
Ends that are not written are not given here.

Experiments:
[1] = test system: superoxide dismutase (SOD) protein; assay: Western immunoblot of SOD protein in rat brain primary cortical cultures; assay type: cell-based; settings: Dose 6.7 pmol/ml, 5 hours at 37° C.
Protocol: Primary cortical cultures were obtained by growing newborn rat brain cortical cells in Delbecco's modified Eagle medium supplemented with 25 μg/ml of gentamycin and 10% fetal calf serum. The cells were isolated from the E-21 cortex of rat brain, plated at a density of 1×10^5 per ml and grown to confluence within four to five days in an atmosphere containing air and 5% CO2 at 37° C. as described in Cornell-Bell et al., Science, 247: 470-473 (1990) and Cell Calcium, 12: 185-204 (1991). Cultures were grown in 20 ml flasks as a monolayer and then exposed to various concentrations of peptides for studies of the effects of peptides on upregulation of genes for SOD and CAT and on the transmigration of transcription factor AP-1 to cell nuclei. […]
(§1) Tissue culture experiments were carried out using primary cultures of rat brain cortical cells as previously described above in Example 2. Primary cultures from embryonic rat brain isolated at E-21 (21 day embryos) and incubated for five hours with various doses: 1, 10, 100 ng/ml of CMX-99672. Cytoplasmic proteins were isolated and analyzed for upregulation of SOD and CAT by Western immunoblots as described above. […] The Western blot was scanned to quantify the fold-increase in SOD production in cell cultures treated with the CMX-99672 peptide compound.
Representative peptide compounds were tested at various doses and compared for their ability to upregulate expression of genes for SOD and/or CAT in rat primary cortical cultures basically as described above. Cultures were incubated with a peptide compound for 5 hours at 37° C. Cytoplasmic protein fractions were prepared as described above. Cytoplasmic proteins were separated by gel electrophoresis and analyzed by Western immunoblots using antisera to SOD and CAT, respectively (Rockland, Inc., Gilbertsville, Pa.). […]

[2] = test system: catalase (CAT) mRNA; assay: RT-PCR upregulation of catalase (CAT) mRNA in primary rat cortical cultures; assay type: cell-based; settings: 100 ng/ml
Source text: Peptide compounds of the invention may also upregulate mRNA for catalase (CAT). Experiments using the RT-PCR methods to detect upregulation of CAT mRNA in primary rat cortical brain cultures treated with various representative peptide compounds, i.e., CMX-9236, CMX-9963, and CMX-9967. The catalase probe duplex consisted of a sense primer having the sequence […] (SEQ ID NO:31) and antisense primer having the sequence […] (SEQ ID NO:32) flanking a 95 bp region of the CAT DNA.
Primary rat brain cortical cell cultures were incubated with 100 ng/ml of the peptide compound CMX-9236 for 0, 0.5, 1, 2, 3, 6, 12, 24, and 48 hours. […] The upregulation of CAT mRNA was maximal at 3 hours after the addition of the peptide compound, and it decreased back to control levels at 48 hours. GAPDH was the internal standard in these experiments. […] A 13-fold increase in CAT mRNA levels was observed (over control) of CAT mRNA occurred when primary rat brain cortical cultures were incubated with 100 ng/ml of CMX-9236 for 3 hours.

[3] = test system: middle cerebral artery (MCA) temporary occlusion stroke model; assay: Temporary MCA occlusion stroke model; assay type: in vivo, Sprague-Dawley rats
Protocol: The in vivo neuroprotective effects of CMX-9236 were investigated in both temporary and permanent occlusion stroke models in Sprague-Dawley rats using an intraluminal suture of the middle cerebral artery (MCA) occlusion method (Zea Longa et al., Stroke, 20: 84 (1989)). Briefly, a 4-0 silicone-coated suture was inserted through the right common carotid artery to block the MCA orifice. In the temporary model, CMX-9236 (6.2 mg/kg/hr) or vehicle was administered via the femoral vein at 30 minutes after the start of a 2-hour occlusion for a 4-hour continuous infusion; the rats were then reperfused by withdrawing the suture at […] after the MCA occlusion. All experiments were performed in a blinded and randomized manner, and rectal temperature was maintained at 37° C. The animals were sacrificed, and their brains were removed, sectioned into six 2-mm-thick coronal slices and stained with 2,3,5-triphenyltetrazolium chloride solution (Bederson et al., Stroke, 17:1304 (1986)) to visualize the extent of brain damage for the calculation of the corrected hemispheric infarct volumes (Nagasawa and Kogure, Stroke, 20:1037 (1989); Li et al., J. Cereb. Blood Flow Metab., 17:1132 (1997)). […] This represents a significant reduction of infarct size (35±5%, p=0.01, student t-test) for the CMX-9236-treated group in the temporary occlusion model. There was also a 58+11% improvement in the neurological scoring (Minematsu et al., Neurology, 42:235 (1992)) for the peptide-treated group versus controls at the end of 24 hours.

[4] = test system: catalase (CAT) protein; assay: Western immunoblot of CAT protein in rat primary cortical cultures; assay type: cell-based; settings: Dose 67 pmol/ml, 5 hours at 37° C.
Protocol: as §1
Representative peptide compounds were tested at various doses and compared for their ability to upregulate expression of genes for SOD and/or CAT in rat primary cortical cultures basically as described above. Cultures were incubated with a peptide compound for 5 hours at 37° C. Cytoplasmic protein fractions were prepared as described above. Cytoplasmic proteins were separated by gel electrophoresis and analyzed by Western immunoblots using antisera to SOD and CAT, respectively (Rockland, Inc., Gilbertsville, Pa.).

[5] = test system: middle cerebral artery (MCA) permanent occlusion stroke model; assay: Permanent MCA 24-hour occlusion stroke model; assay type: in vivo, Sprague-Dawley rats; settings: Dose 0.05 mg/hr

Sequence: KKDGDGDFAIDAPE [CMX-9236, uncapped peptide]
- SOD [1]: 466 % Control
- time at which CAT mRNA decreased back to control levels [2]: 48 h
- time of maximal upregulation of CAT mRNA after addition [2]: 3 h
- increase in CAT mRNA levels over control ([2]; 3 hours): 13 fold
- corrected infarct volume (mean±S.E.) ([3]; 6.2 mg/kg/hr i.v., 4-hour infusion from 30 min after start of occlusion, n=10): 117.3±17 mm^3
- reduction of infarct size vs vehicle ([3]; 6.2 mg/kg/hr, p=0.01): 35±5%
- improvement in neurological scoring vs controls ([3]; at the end of 24 hours): 58+11%
- CAT [4]: 652 % Control
- Percent Neurological Rescue [5]: 35 ± 8%
- Percent Rescue (percent decrease in infarct size vs vehicle controls) [5]: 23 ± 7%
